Values joined by “and” are separate entries in the source; they are usually repeats but may differ in a detail not shown here. Equal values may be shown once.
Experiments:
Saprophagous nematodes = test: Nematicidal activity of citral on Saprophagous nematodes (selectivity experiment); conditions: 250 ppm
Excerpt: Living saprophagus nematodes move rapidly in water. The control used was the nematodes in water alone.
The figures given are for the percentage of nematodes found to be dead upon microscopic examination and are the average of 2 replicates.

[1] = Terpene loading with surfactant, Tween-80:terpene ratio (free terpene score); assay type: physicochemical; design: key: Sl = slight; conditions: Citral emulsion 113 μl, 250 mg/ml YP
Procedure: Samples were centrifuged at 14,000×g for 10 minutes and the appearance of free terpene floating on the aqueous layer was scored. The expression “free terpene” refers to the visible presence of terpene in the centrifuged reaction mixture. The absence of free terpene indicates complete absorption and encapsulation of the terpene by the YP. The highest volume of terpene absorbed by the YP, as evidenced by the absence of free terpene, was recorded as the maximal volume of absorbed terpene emulsion.

[2] = Kinetics of terpene loading into various particles at room temperature or 37° C.; assay type: physicochemical; design: key: +: “free terpene” refers to the visible presence of terpene in the centrifuged reaction mixture; −: The absence of free terpene indicates complete absorption of the terpene by the particles
Procedure: 1% Tween-80 solution was prepared by sonicating 1 ml 10% Tween-80 in 10 ml water. • Baker's YP was prepared by mixing 5 g of bakers YP in 20 ml 1% Tween-80. • Nutrex™ YGP suspension was prepared by mixing 2 g Nutrex™ YGP in 20 ml 1% Tween-80. • SAF Mannan™ suspension was prepared by mixing 2 g SAF Mannan™ in 20 ml 1% Tween-80.
The reactions were incubated for 1, 3, 6, 9 and 24 hours at room temperature or 37° C. After incubation samples were centrifuged at 14,000×g for 10 minutes and the appearance of free terpene floating on the aqueous layer was scored. The highest volume of terpene absorbed by the particles as evidenced by the absence of free terpene was recorded as the volume of absorbed terpene emulsion. Colour of the encapsulated pellet was scored at 24 hours.

[3] = Maximal citral and L-carvone loading in Baker's yeast particles (free terpene score); assay type: physicochemical; design: key to Free Terpene: +: “free terpene” refers to the visible presence of terpene in the centrifuged reaction mixture; −: The absence of free terpene indicates complete absorption of the terpene by the particles; conditions: for Free Terpene: 500 μl 20 mg/ml YP, overnight room temperature
Procedure: Samples were centrifuged at 14,000×g for 10 minutes and the appearance of free terpene floating on the aqueous layer was scored. The expression “free terpene” refers to the visible presence of terpene in the centrifuged reaction mixture. The absence of free terpene indicates complete absorption of the terpene by the particles. The highest volume of terpene absorbed by the particles, as evidenced by the absence of free terpene, was recorded as the maximal volume of absorbed terpene emulsion.

[4] = SAF Mannan loading of different terpenes and terpene mixtures; assay type: physicochemical; design: key to Free Terpene: +: “free terpene” refers to the visible presence of terpene in the centrifuged reaction mixture; −: The absence of free terpene indicates complete absorption of the terpene by the particles; key to Free Terpene: phase inversion remark: Inverted = Phase Inverted - solids floating on top - no free oil; W = white; Y = yellow; conditions: for Free Terpene: SAF Mannan 500 μl (250 mg/ml), overnight, room temperature; for Free Terpene: phase inversion remark: SAF Mannan 500 μl, second line of the Free Terpene cell
Procedure: Increasing volumes of terpene emulsion were mixed with 250 mg/ml Baker's YP or 250 mg/ml SAF Mannan™ overnight at room temperature as shown in Tables 27 and 28. Samples were centrifuged at 14,000×g for 10 minutes and the appearance of free terpene floating on the aqueous layer was scored. The highest volume of terpene emulsion absorbed by Baker's YP or SAF Mannan™ as evidenced by the absence of free terpene was recorded as the volume of absorbed terpene emulsion. Colour of encapsulated terpenes in the pellet was recorded.
Percentage loaded represents a ratio of the amount of terpene loaded to the amount of particle present (weight for weight).

root-knot juveniles = test: Effect of citral alone and citral and thymol on root-knot nematode juveniles; assay type: in vivo; conditions: average of 2 replicates
Procedure: This was labelled 2500 ppm and was diluted to provide test solutions at 500, 250, 125 and 62.5 ppm.
This was marked 2500 ppm and diluted to provide test solutions at 500, 250, 125 and 62.5 ppm.
Control—Water was used as the control.
Nematode juveniles were collected in water and 0.1 to 0.15 ml added to each well of a plastic assay plate. 1.0 ml of the test solutions was added to each well. Observations were made microscopically after 24 and 48 hours as described in Example 4. […] Living nematodes move in an undulating, wave-like motion.
The results of two experiments are provided below in Tables 7 and 8.

CC(C)=CCCC(C)=CC=O [Citral, citral]
Sl: Free Terpene ([1]; 10% Tween-80 33 μl) | Free Terpene ([1]; 10% Tween-80 100 μl)
150 µL: Vol. loaded (maximal terpene loading in SAF Mannan) ([4]; approximate maximal loading, volume of terpene emulsion absorbed by SAF Mannan)
94%: percentage of nematodes dead (root-knot juveniles; Table 8 experiment, 125 ppm, 24 h) | percentage of nematodes dead (root-knot juveniles; Table 8 experiment, 250 ppm, 24 h)
97%: percentage of nematodes dead (root-knot juveniles; Table 7 experiment, 500 ppm, 48 h)
133% w/w: % Loaded w/w (maximal terpene loading in SAF Mannan) ([4]; ratio of amount of terpene loaded to amount of particle present (weight for weight))
98%: percentage of nematodes dead (root-knot juveniles; Table 7 experiment, 500 ppm, 24 h) | percentage of nematodes dead (root-knot juveniles; Table 8 experiment, 62.5 ppm, 24 h)
91%: percentage of nematodes dead (root-knot juveniles; Table 7 experiment, 250 ppm, 48 h)
24%: percentage of nematodes dead (root-knot juveniles; Table 7 experiment, 125 ppm, 48 h)
at least 5 μl: terpene emulsion absorbed and encapsulated per 10 mg of YP ([3]; Baker's YP 20 mg/ml)
Inverted: Free Terpene: phase inversion remark ([4]; terpene emulsion vol 150) | Free Terpene: phase inversion remark ([4]; terpene emulsion vol 225) | Free Terpene: phase inversion remark ([4]; terpene emulsion vol 450)
50% and 52%: % dead (Saprophagous nematodes; 48 h)
−: Free Terpene (hr) ([2]; 37 ° C., Bakers 250 mg/ml, emulsion 788 μl L-carvone or 525 μl Citral, 3 hr) | Free Terpene (hr) ([2]; 37 ° C., Bakers 250 mg/ml, emulsion 788 μl L-carvone or 525 μl Citral, 6 hr) | Free Terpene (hr) ([2]; 37 ° C., Bakers 250 mg/ml, emulsion 788 μl L-carvone or 525 μl Citral, 9 hr) | Free Terpene (hr) ([2]; 37 ° C., Bakers 250 mg/ml, emulsion 788 μl L-carvone or 525 μl Citral, 24 hr) | Free Terpene (hr) ([2]; 37 ° C., Nutrex 100 mg/ml, emulsion 1050 μl L-carvone or 788 μl Citral, 3 hr) | Free Terpene (hr) ([2]; 37 ° C., Nutrex 100 mg/ml, emulsion 1050 μl L-carvone or 788 μl Citral, 6 hr) | Free Terpene (hr) ([2]; 37 ° C., Nutrex 100 mg/ml, emulsion 1050 μl L-carvone or 788 μl Citral, 9 hr) | Free Terpene (hr) ([2]; 37 ° C., Nutrex 100 mg/ml, emulsion 1050 μl L-carvone or 788 μl Citral, 24 hr) | Free Terpene (hr) ([2]; 37 ° C., SAF 100 mg/ml, emulsion 1050 μl L-carvone or 788 μl Citral, 3 hr) | Free Terpene (hr) ([2]; 37 ° C., SAF 100 mg/ml, emulsion 1050 μl L-carvone or 788 μl Citral, 6 hr) | Free Terpene (hr) ([2]; 37 ° C., SAF 100 mg/ml, emulsion 1050 μl L-carvone or 788 μl Citral, 9 hr) | Free Terpene (hr) ([2]; 37 ° C., SAF 100 mg/ml, emulsion 1050 μl L-carvone or 788 μl Citral, 24 hr) | Free Terpene (hr) ([2]; Rt, Bakers 250 mg/ml, emulsion 788 μl L-carvone or 525 μl Citral, 3 hr) | Free Terpene (hr) ([2]; Rt, Bakers 250 mg/ml, emulsion 788 μl L-carvone or 525 μl Citral, 6 hr) | Free Terpene (hr) ([2]; Rt, Bakers 250 mg/ml, emulsion 788 μl L-carvone or 525 μl Citral, 9 hr) | Free Terpene (hr) ([2]; Rt, Bakers 250 mg/ml, emulsion 788 μl L-carvone or 525 μl Citral, 24 hr) | Free Terpene (hr) ([2]; Rt, Nutrex 100 mg/ml, emulsion 1050 μl L-carvone or 788 μl Citral, 3 hr) | Free Terpene (hr) ([2]; Rt, Nutrex 100 mg/ml, emulsion 1050 μl L-carvone or 788 μl Citral, 6 hr) | Free Terpene (hr) ([2]; Rt, Nutrex 100 mg/ml, emulsion 1050 μl L-carvone or 788 μl Citral, 9 hr) | Free Terpene (hr) ([2]; Rt, Nutrex 100 mg/ml, emulsion 1050 μl L-carvone or 788 μl Citral, 24 hr) | Free Terpene (hr) ([2]; Rt, SAF 100 mg/ml, emulsion 1050 μl L-carvone or 788 μl Citral, 3 hr) | Free Terpene (hr) ([2]; Rt, SAF 100 mg/ml, emulsion 1050 μl L-carvone or 788 μl Citral, 6 hr) | Free Terpene (hr) ([2]; Rt, SAF 100 mg/ml, emulsion 1050 μl L-carvone or 788 μl Citral, 9 hr) | Free Terpene (hr) ([2]; Rt, SAF 100 mg/ml, emulsion 1050 μl L-carvone or 788 μl Citral, 24 hr) | Free Terpene ([3]; emulsion 0.5 μl, 10% Tween-80 500 μl) | Free Terpene ([3]; emulsion 1.65 μl, 10% Tween-80 500 μl) | Free Terpene ([3]; emulsion 5 μl, 10% Tween-80 495 μl) | Free Terpene ([4]; terpene emulsion vol 15, 1% Tween-80 485 μl) | Free Terpene ([4]; terpene emulsion vol 37.5, 1% Tween-80 462.5 μl) | Free Terpene ([4]; terpene emulsion vol 75, 1% Tween-80 425 μl) | Free Terpene ([4]; terpene emulsion vol 112.5, 1% Tween-80 387.5 μl)
+: Free Terpene (hr) ([2]; 37 ° C., Bakers 250 mg/ml, emulsion 788 μl L-carvone or 525 μl Citral, 1 hr) | Free Terpene (hr) ([2]; 37 ° C., Nutrex 100 mg/ml, emulsion 1050 μl L-carvone or 788 μl Citral, 1 hr) | Free Terpene (hr) ([2]; 37 ° C., SAF 100 mg/ml, emulsion 1050 μl L-carvone or 788 μl Citral, 1 hr) | Free Terpene (hr) ([2]; Rt, Bakers 250 mg/ml, emulsion 788 μl L-carvone or 525 μl Citral, 1 hr) | Free Terpene (hr) ([2]; Rt, Nutrex 100 mg/ml, emulsion 1050 μl L-carvone or 788 μl Citral, 1 hr) | Free Terpene (hr) ([2]; Rt, SAF 100 mg/ml, emulsion 1050 μl L-carvone or 788 μl Citral, 1 hr) | Free Terpene ([3]; emulsion 50 μl, 10% Tween-80 450 μl) | Free Terpene ([3]; emulsion 165 μl, 10% Tween-80 335 μl) | Free Terpene ([3]; emulsion 500 μl, no Tween-80) | Free Terpene ([4]; terpene emulsion vol 225, 1% Tween-80 275 μl) | Free Terpene ([4]; terpene emulsion vol 450, 1% Tween-80 50 μl)
100%: percentage of nematodes dead (root-knot juveniles; Table 7 experiment, 125 ppm, 24 h) | percentage of nematodes dead (root-knot juveniles; Table 7 experiment, 250 ppm, 24 h)
43% and 50%: % dead (Saprophagous nematodes; 24 h)
